The target of this test is T1, purified human IDO protein (Homo sapiens, UniProt P14902, E119G/P110S).
T1 construct: 6-Histidine tag (C); made in house; host or cells: E. coli M15(pREP4) transformed with pQE70-hIDO
Description: Enzymatic IDO assay (kynurenine formation, absorbance at 480 nm). Format: biochemical. The settings on record: recombinant human IDO, 200 μM L-tryptophan, pH 6.5; reported in ranges. The procedure:
The inhibitors were initially diluted in DMSO at 100 mM and were diluted in potassium phosphate 50 mM, added to the reaction mixture at final concentrations raging from 1 mM to 5 nM and preincubated with the enzyme for 5 min at 25° C. The reaction was started by addition of L-tryptophan to 200 μM and incubated 15 min at 37° C. The reaction was stopped by addition of 0.5 vol of 30% trichloroacetic acid and incubated 30 min at 60° C. to hydrolyze N-formylkynurenine to kynurenine. The reaction was centrifuged at 3400 g for 5 min to remove precipitated protein and the supernatant was reacted with 2% (w/v) of p-dimethylaminobenzaldehyde in acetic acid. The reaction was incubated 10 min at 25° C. and read at 480 nm in a spectrophotometer. […] Nonlinear regressions and determination of the IC50 values were performed using the GraphPad Prism 4 software.

Molecules are shown by their SMILES. pIC50: −log10 of the molar value. Counter-ions that a name gives are not always drawn. A value given as a limit tells only on which side of the number the result lay.

T1 sequence (P14902 whole entry P110S/E119G): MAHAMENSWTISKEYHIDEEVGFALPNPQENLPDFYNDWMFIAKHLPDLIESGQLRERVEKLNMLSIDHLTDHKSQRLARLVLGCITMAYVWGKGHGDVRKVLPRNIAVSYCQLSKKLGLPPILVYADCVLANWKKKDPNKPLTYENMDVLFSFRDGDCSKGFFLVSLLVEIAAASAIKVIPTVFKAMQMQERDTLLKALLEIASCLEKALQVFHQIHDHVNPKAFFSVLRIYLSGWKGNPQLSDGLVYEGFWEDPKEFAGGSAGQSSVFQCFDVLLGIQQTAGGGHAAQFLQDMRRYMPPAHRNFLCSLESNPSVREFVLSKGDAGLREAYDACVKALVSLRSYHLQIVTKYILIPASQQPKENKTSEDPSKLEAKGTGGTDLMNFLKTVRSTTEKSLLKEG

A word on the pIC50: it is the IC50 on a negative log10 scale, so that one unit is a factor of ten. Regarding `Oc1ccc(F)cc1-c1cc[nH]n1` [Compound 36, 4-fluoro-2-(1H-pyrazol-3-yl)phenol], the pIC50 is above 4.70.

Take `c1ccc(-c2c[nH]cn2)c(OCC2CCNCC2)c1` [Compound 157, 4-((2-(1H-imidazol-4-yl)phenoxy)methyl)piperidine]: the pIC50 is 4.00 to 4.70.

On to `Cc1cccc(COc2ccccc2-c2cnc[nH]2)c1` [Compound 48, 5-(2-(3-methylbenzyloxy)phenyl)-1H-imidazole], for which the pIC50 is above 4.70.

Regarding `CCc1ccc(O)c(-c2cnc[nH]2)c1` [Compound 111, 4-ethyl-2-(1H-imidazol-5-yl)phenol], the pIC50 was 3.30 to 4.00.

On to `CC(C)(CCNc1ccncc1)CCOc1ccccc1-c1cnc[nH]1` [Compound 164, N-(5-(2-(1H-imidazol-5-yl)phenoxy)-3,3-dimethylpentyl) pyridin-4-amine], for which the negative logarithm of the IC50 (pIC50) was 4.00 to 4.70.

For `c1ccc(Cc2nc[nH]c2-c2ccccc2)cc1` [Compound 123, 4-benzyl-5-phenyl-1H-imidazole], the pIC50 was 3.30 to 4.00.

For `Clc1cccc(Cn2cncc2-c2ccccc2)c1` [Compound 87, 1-(3-chlorobenzyl)-5-phenyl-1H-imidazole], the negative-log IC50 (pIC50) was 4.00 to 4.70.

`O=C(NCc1ccccc1-c1c[nH]cn1)c1ccccc1Cl` [Compound 30, N-(2-(1H-imidazol-4-yl)benzyl)-2-chlorobenzamide]: the pIC50 is above 4.70.

Turning to `CS(=O)(=O)N1CCC(COc2ccccc2-c2c[nH]cn2)CC1` [Compound 84, 4-((2-(1H-imidazol-4-yl)phenoxy)methyl)-1-(methylsulfonyl)piperidine], the pIC50 is 4.00 to 4.70.

As to `O=[N+]([O-])c1ccccc1Cn1cncc1-c1ccccc1` [Compound 71, 1-(2-nitrobenzyl)-5-phenyl-1H-imidazole], the pIC50 is 4.00 to 4.70.

Consider `CC(C)(C)CCOc1cccc(O)c1-c1cnc[nH]1` [Compound 13, 3-(3,3-dimethylbutoxy)-2-(1H-imidazol-5-yl) phenol hydrochloride], for which the pIC50 is above 4.70.

On to `O=C1c2ccccc2CC1Oc1ccccc1-c1c[nH]cn1` (stereo not shown) [Compound 159, 2-(2-(1H-imidazol-4-yl)phenoxy)-2,3-dihydro-1H-inden-1-one], for which the pIC50 is 4.00 to 4.70.

For `CNC(=O)c1ccc(CCOc2ccccc2-c2c[nH]cn2)cc1` [Compound 45, 4-(2-(2-(1H-imidazol-4-yl)phenoxy)ethyl)-N-methylbenzamide], the pIC50 is above 4.70.

Regarding `c1ccc(-c2c[nH]cn2)c(OCC2CCCNC2)c1` (stereo not shown) [Compound 76, 3-((2-(1H-imidazol-4-yl)phenoxy)methyl)piperidine], the pIC50 is 4.00 to 4.70.

`N#Cc1cccc(Cn2cncc2-c2ccccc2)c1` [Compound 69, 3-((5-phenyl-1H-imidazol-1-yl)methyl)benzonitrile]: the pIC50 is 4.00 to 4.70.

Take `Oc1cc(Cl)ccc1-c1cnc[nH]1` [Compound 63, 5-chloro-2-(1H-imidazol-5-yl)phenol]: the pIC50 was 4.00 to 4.70.

As to `CC(=O)NCCCn1cncc1-c1ccccc1` [Compound 124, N-(3-(5-phenyl-1H-imidazol-1-yl)propyl)acetamide], the pIC50 is 3.30 to 4.00.

Take `N#Cc1ccccc1Cn1cncc1-c1ccccc1` [Compound 96, 2-((5-phenyl-1H-imidazol-1-yl)methyl)benzonitrile]: the pIC50 is 4.00 to 4.70.

In the case of `N#Cc1ccc(COc2ccccc2-c2c[nH]cn2)cc1` [Compound 55, 4-((2-(1H-imidazol-4-yl)phenoxy)methy)benzonitrile], the pIC50 is 4.00 to 4.70.

With `CC(=O)Nc1ccccc1CCOc1ccccc1-c1c[nH]cn1` [Compound 165, N-(2-(2-(2-(1H-imidazol-4-yl)phenoxy)ethyl)phenyl) acetamide], the pIC50 is 3.30 to 4.00.

Take `Oc1ccc(C(F)(F)F)cc1-c1c[nH]cn1` [Compound 156, 2-(1H-imidazol-4-yl)-4-(trifluoromethyl)phenol]: the negative-log IC50 (pIC50) was above 4.70.

As to `Cc1ccccc1Cn1cncc1-c1ccccc1` [Compound 77, 1-(2-methylbenzyl)-5-phenyl-1H-imidazole], the pIC50 was 4.00 to 4.70.

Consider `CC(C)(C)OC(=O)Nc1ccccc1-c1c[nH]cn1` [Compound 152, tert-butyl 2-(1H-imidazol-4-yl)phenylcarbamate], for which the negative logarithm of the IC50 (pIC50) is above 4.70.

`COc1cccc(Cn2cncc2-c2ccccc2)c1` [Compound 93, 1-(3-methoxybenzyl)-5-phenyl-1H-imidazole]: the negative-log IC50 (pIC50) was 4.00 to 4.70.

For `Brc1ccccc1CCOc1ccccc1-c1c[nH]cn1` [Compound 148, 4-(2-(2-bromophenethoxy)phenyl)-1H-imidazole], the pIC50 was above 4.70.

For the compound `NC(=O)c1ccc(COc2ccccc2-c2c[nH]cn2)cc1` [Compound 146, 4-((2-(1H-imidazol-4-yl)phenoxy)methyl)benzamide], the pIC50 was 4.00 to 4.70.

In the case of `O=[N+]([O-])c1ccc(Cn2cncc2-c2ccccc2)cc1` [Compound 85, 1-(4-nitrobenzyl)-5-phenyl-1H-imidazole], the pIC50 was 4.00 to 4.70.

For `CC(C)(CCOc1ccccc1-c1cnc[nH]1)CCn1ccnc1` [Compound 163, 5-(2-(5-(1H-imidazol-1-yl)-3,3-dimethylpentyloxy)phenyl)-1H-imidazole], the pIC50 was 3.30 to 4.00.

`CC(C)(CCOc1ccccc1-c1c[nH]cn1)CCOc1ccccc1-c1cnc[nH]1` [Compound 18, 5,5′-(2,2′-(3,3-dimethylpentane-1,5-diyl)bis(oxy)bis(2,1-phenylene))bis(1H-imidazole)]: the pIC50 was above 4.70.

For `Clc1ccccc1OCCc1ccccc1-c1c[nH]cn1` [Compound 149, 4-(2-(2-(2-chlorophenoxy)ethyl)phenyl)-1H-imidazole], the negative-log IC50 (pIC50) was 4.00 to 4.70.

As to `Clc1ccc(COc2ccc(OCc3ccc(Cl)cc3)c(-c3c[nH]cn3)c2)cc1` [Compound 91, 4-(2,5-bis(4-chlorobenzyloxy)phenyl)-1H-imidazole], the pIC50 is 4.00 to 4.70.

For the compound `c1ccc(CCn2cncc2-c2ccccc2)cc1` [Compound 81, 1-phenethyl-5-phenyl-1H-imidazole], the pIC50 was 4.00 to 4.70.

For the compound `NCCCOc1ccccc1-c1cnc[nH]1` [Compound 92, 3-(2-(1H-imidazol-5-yl)phenoxy)propan-1-amine], the pIC50 was 4.00 to 4.70.

Consider `c1cnc(NCCOc2ccccc2-c2cnc[nH]2)nc1` [Compound 102], for which the pIC50 is 3.30 to 4.00.

As for `CC(=O)N1CCC(COc2ccccc2-c2c[nH]cn2)CC1` [Compound 100, 1-(4-((2-(1H-imidazol-4-yl)phenoxy)methyl)piperidin-1-yl)ethanone], the pIC50 was 3.30 to 4.00.

Turning to `CC(C)(C)CCn1cncc1-c1ccccc1OCc1ccc(Cl)cc1` [Compound 106, 5-(2-(4-chlorobenzyloxy)phenyl)-1-(3,3-dimethylbutyl)-1H-imidazole], the pIC50 was 3.30 to 4.00.

With `Brc1cccc(-c2cnc[nH]2)c1` [Compound 27, 5-(3-bromophenyl)-1H-imidazole], the pIC50 was above 4.70.

Take `COc1cccc(OC)c1-c1c[nH]cn1` [Compound 103, 5-(2,6-dimethoxyphenyl)-1H-imidazole]: the pIC50 is 3.30 to 4.00.

Regarding `CC(C)(C)CCn1cncc1-c1ccccc1` [Compound 32, 1-(3,3-dimethylbutyl)-5-phenyl-1H-imidazole], the pIC50 is above 4.70.

For `COC(=O)c1ccc(-c2c[nH]cn2)cc1` [Compound 115, methyl 4-(1H-imidazol-4-yl)benzoate], the pIC50 is 3.30 to 4.00.

Take `Fc1cc(F)cc(-c2c[nH]cn2)c1` [Compound 59, 4-(3,5-difluorophenyl)-1H-imidazole]: the pIC50 was 4.00 to 4.70.

As to `CC(C)(CCO)CCOc1ccccc1-c1c[nH]cn1` [Compound 167, 5-(2-(1H-imidazol-4-yl)phenoxy)-3,3-dimethylpentan-1-ol], the pIC50 is 4.00 to 4.70.

`CNC(=O)Cc1cccc(COc2ccccc2-c2c[nH]cn2)c1` [Compound 57, 2-(3-((2-(1H-imidazol-4-yl)phenoxy)methyl)phenyl)-N-methylacetamide]: the negative logarithm of the IC50 (pIC50) is 4.00 to 4.70.

Regarding `N#Cc1cccc(COc2ccccc2-c2c[nH]cn2)c1` [Compound 74, 3-((2-(1H-imidazol-4-yl)phenoxy)methyl)benzonitrile], the pIC50 was 4.00 to 4.70.

Take `CSc1ccccc1-c1c[nH]cn1` [Compound 1, 5-(2-(methylthio)phenyl)-1H-imidazole]: the pIC50 is 4.00 to 4.70.

`COC(=O)c1cccc(-c2c[nH]cn2)c1` [Compound 112, methyl 3-(1H-imidazol-4-yl)benzoate]: the negative-log IC50 (pIC50) is 3.30 to 4.00.

Regarding `CC(=O)Nc1cccc(CCOc2ccccc2-c2c[nH]cn2)c1` [Compound 40, N-(3-(2-(2-(1H-imidazol-4-yl)phenoxy)ethyl)phenyl) acetamide], the pIC50 was above 4.70.

As to `Oc1cccc(Cn2cncc2-c2ccccc2)c1` [Compound 51, 3-((5-phenyl-1H-imidazol-1-yl)methyl)phenol], the pIC50 is above 4.70.

Turning to `O=C(O)c1ccccc1-c1c[nH]cn1` [Compound 153, 2-(1H-imidazol-4-yl)benzoic acid], the pIC50 was 3.30 to 4.00.

On to `CC(C)(CCOc1ccccc1-c1c[nH]cn1)CCN1CCOCC1` [Compound 161, 4-(5-(2-(1H-imidazol-4-yl)phenoxy)-3,3-dimethylpentyl) morpholine], for which the pIC50 is 4.00 to 4.70.

With `COc1ccccc1Cn1cncc1-c1ccccc1` [Compound 110, 1-(2-methoxybenzyl)-5-phenyl-1H-imidazole], the pIC50 is 3.30 to 4.00.

`NC(=O)CCCn1cncc1-c1ccccc1` [Compound 129, 4-(5-phenyl-1H-imidazol-1-yl)butanamide]: the pIC50 was 3.30 to 4.00.

These data come from US9174942B2, “IDO inhibitors” (NewLink Genetics Corporation, priority 2008, dated 2015).
